Consider 15 compounds from patent publication US20260007758A1, “SO[…]-2 RECEPTOR (SST2R) NON-PEPTIDE DRUG CONJUGATES AND USES THEREOF” (Crinetics Pharmaceuticals, Inc., priority 2024, published 2026).

pEC50: −log10 of the molar value.

What all share (assay type): cell-based
Test [1] concerns the target T1, human somatostatin receptor subtype 2 (Homo sapiens, UniProt P30874).
T1 construct: expressed in transfected cells
Put plainly: Functional assay for SSTR2 agonists (HTRF cAMP). The following applies: CHO-K1 cells stably expressing human SST2; NKH477-stimulated cAMP; 20 min at 37 C; read-out: hSST2 cAMP Avg EC50. In outline:
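Agonist activity read as fall in intracellular cAMP: HTRF 665/620 nm ratio regressed to a cAMP standard curve, EC50 fitted. Stable human SSTR2 CHO-K1 cells exposed 20 min at 37 °C to compound, final concentrations typically 0-10,000 nM.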
A general note: Time-resolved FRET reads energy transfer from a long-lived donor to a nearby acceptor.

In a further test the target is T2, SST2 (Homo sapiens, UniProt P30874).
T2 construct: host or cells: PathHunter CHO-K1 SST2 cells
T2 sequence (P30874 whole entry): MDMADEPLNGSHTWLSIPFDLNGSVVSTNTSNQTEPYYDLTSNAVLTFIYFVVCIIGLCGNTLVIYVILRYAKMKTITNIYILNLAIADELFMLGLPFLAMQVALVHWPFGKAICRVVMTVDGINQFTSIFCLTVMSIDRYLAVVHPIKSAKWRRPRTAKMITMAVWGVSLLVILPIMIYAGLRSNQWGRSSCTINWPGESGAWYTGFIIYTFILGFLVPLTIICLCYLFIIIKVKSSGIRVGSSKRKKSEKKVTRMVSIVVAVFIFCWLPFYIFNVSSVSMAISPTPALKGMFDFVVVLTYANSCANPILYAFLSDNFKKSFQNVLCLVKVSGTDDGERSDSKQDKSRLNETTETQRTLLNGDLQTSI
Put plainly: PathHunter CHO-K1 SST2 Internalization Assay. The following applies: PathHunter CHO-K1 SST2 cells; 90 min at 37 C; luminescence; read-out: Internalization EC50. In outline: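 Four-parameter nonlinear fits of background-corrected luminescence (duplicate means) gave IC50s. NDCs were serially diluted 1:3 over 11 points from a 10 uM final top concentration and incubated 90 min at 37 C with human SST2 CHO-K1 cells plated 48 h earlier at 2500/well. Beta-Glo read-out developed 60 min at RT.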

Test [2] relates to NCI-H524 human small cell lung cancer cells. Put plainly: H524 assay: inhibition of cell proliferation (CellTiter Glo). The following applies: 2 h treatment, washout, additional 70 h incubation. In outline:
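Proliferation was measured by CellTiter Glo 70 h after a washout that followed a 2 h pulse of NDC. Doses were an 11-point, two-fold dilution series from 1 uM. IC50 was fitted with a four-parameter model to luminescence-based % inhibition relative to control cells.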
(In general: Cellular ATP, detected with luciferase, serves as a proxy for viable cell number.)

T1 sequence (P30874 whole entry): as above

Turning to `CC[C@H](C)[C@@H]([C@@H](CC(=O)N1CCC[C@H]1[C@H](OC)[C@@H](C)C(=O)N[C@H](C)[C@@H](O)c1ccccc1)OC)N(C)C(=O)[C@@H](NC(=O)[C@H](C(C)C)N(C)C(=O)OCc1ccc(NC(=O)[C@H](CCCNC(N)=O)NC(=O)[C@@H](NC(=O)CCOCCC(=O)NCCNc2ncc(-c3cc(C)cc(F)c3)c(N3CCC(N)CC3)c2-c2nc3ccc(Cl)cc3[nH]2)C(C)C)cc1C(=O)N[C@@H](CCCCNC(=O)CCCCc1ccc(I)cc1)C(=O)O)C(C)C` [Compound 246], the pEC50 in test [1] is 10.00; on SST2, 8.82; in test [2], 7.13.
Regarding `CC[C@H](C)[C@@H]([C@@H](CC(=O)N1CCC[C@H]1[C@H](OC)[C@@H](C)C(=O)N[C@H](C)[C@@H](O)c1ccccc1)OC)N(C)C(=O)[C@@H](NC(=O)[C@H](C(C)C)N(C)C(=O)OCc1ccc(NC(=O)[C@H](CCCNC(N)=O)NC(=O)[C@@H](NC(=O)[C@H](CCC(=O)O)NC(=O)CCOCCC(=O)NCCNc2ncc(-c3cc(C)cc(F)c3)c(N3CC[C@H]4NCCC[C@@H]4C3)c2-c2nc3ccc(Cl)cc3[nH]2)C(C)C)cc1C(=O)NCCN)C(C)C` [Compound 80], the pEC50 is 6.74 in test [1], 6.04 on SST2 and 6.27 in test [2].
On to `CC[C@H](C)[C@@H]([C@@H](CC(=O)N1CCC[C@H]1[C@H](OC)[C@@H](C)C(=O)N[C@H](C)[C@@H](O)c1ccccc1)OC)N(C)C(=O)[C@@H](NC(=O)[C@H](C(C)C)N(C)C(=O)OCc1ccc(NC(=O)[C@H](CCCNC(N)=O)NC(=O)[C@@H](NC(=O)c2cc(NCCOCCC(=O)NCCNc3ncc(-c4cc(C)cc(F)c4)c(N4CCC(N)CC4)c3-c3nc4ccc(Cl)cc4[nH]3)cc(C(=O)NCC(=O)O)c2)C(C)C)cc1)C(C)C` [Compound 185], for which the pEC50 in test [1] is 9.72; on SST2, 8.59; in test [2] it was 5.96.
Regarding `CC[C@H](C)[C@@H]([C@@H](CC(=O)N1CCC[C@H]1[C@H](OC)[C@@H](C)C(=O)N[C@H](C)[C@@H](O)c1ccccc1)OC)N(C)C(=O)[C@@H](NC(=O)[C@H](C(C)C)N(C)C(=O)OCc1ccc(NC(=O)[C@H](CCCNC(N)=O)NC(=O)[C@@H](NC(=O)[C@@H](CS(=O)(=O)O)NC(=O)CCOCCC(=O)NCCNc2ncc(-c3cc(C)cc(F)c3)c(N3CCC(N)CC3)c2-c2nc3ccc(Cl)cc3[nH]2)C(C)C)cc1C(=O)N1CC(C(=O)O)C1)C(C)C` [Compound 77], the figures for the pEC50 (in test [1]; at SST2; in test [2]) were 10.04, 8.38 and 6.89, respectively.
On to `CC[C@H](C)[C@@H]([C@@H](CC(=O)N1CCC[C@H]1[C@H](OC)[C@@H](C)C(=O)N[C@H](C)[C@@H](O)c1ccccc1)OC)N(C)C(=O)[C@@H](NC(=O)[C@H](C(C)C)N(C)C(=O)OCc1ccc(NC(=O)[C@H](CCCNC(N)=O)NC(=O)[C@@H](NC(=O)C[C@@H](N)C(=O)NCCOCCC(=O)NCCNc2ncc(-c3cc(C)cc(F)c3)c(N3CCC(N)CC3)c2-c2nc3ccc(Cl)cc3[nH]2)C(C)C)c(O[C@@H]2O[C@H](C(=O)NCC(=O)O)[C@@H](O)[C@H](O)[C@H]2O)c1)C(C)C` [Compound 35], for which the pEC50 in test [1] was 10.00; on SST2 it was 8.30; in test [2], 7.80.
For `CC[C@H](C)[C@@H]([C@@H](CC(=O)N1CCC[C@H]1[C@H](OC)[C@@H](C)C(=O)N[C@H](C)[C@@H](O)c1ccccc1)OC)N(C)C(=O)[C@@H](NC(=O)[C@H](C(C)C)N(C)C(=O)OCc1ccc(NC(=O)[C@H](CCCNC(N)=O)NC(=O)[C@@H](NC(=O)c2cc(NCCC(=O)NCCNc3ncc(-c4cc(C)cc(F)c4)c(N4CCC(N)CC4)c3-c3nc4ccc(Cl)cc4[nH]3)cc(C(=O)NCC(=O)O)c2)C(C)C)cc1)C(C)C` [Compound 157], the pEC50 in test [1] was 9.35; at SST2, 7.70; in test [2], 7.02.
Turning to `CC[C@H](C)[C@@H]([C@@H](CC(=O)N1CCC[C@H]1[C@H](OC)[C@@H](C)C(=O)N[C@H](C)[C@@H](O)c1ccccc1)OC)N(C)C(=O)[C@@H](NC(=O)[C@H](C(C)C)N(C)C(=O)OCc1ccc(NC(=O)[C@H](CCCNC(N)=O)NC(=O)[C@@H](NC(=O)c2cc(NCCOCCC(=O)NCCNc3ncc(-c4cc(C)cc(F)c4)c(N4CCC(N)CC4)c3-c3nc4cc(F)cc(OC)c4[nH]3)cc(C(=O)NCC(=O)O)c2)C(C)C)cc1)C(C)C` [Compound 166], the pEC50 in test [1] is 9.54; on SST2, 8.35; in test [2], 7.74.
Take `CC[C@H](C)[C@@H]([C@@H](CC(=O)N1CCC[C@H]1[C@H](OC)[C@@H](C)C(=O)N[C@H](C)[C@@H](O)c1ccccc1)OC)N(C)C(=O)[C@@H](NC(=O)[C@H](C(C)C)N(C)C(=O)OCc1ccc(NC(=O)[C@H](CCCNC(N)=O)NC(=O)[C@@H](NC(=O)CCOCCC(=O)NCCNc2ncc(-c3cc(C)cc(F)c3)c(N3CCC(N)CC3)c2-c2nc3cc(Cl)ccc3[nH]2)C(C)C)c(O[C@@H]2O[C@H](C(=O)NCC(=O)O)[C@@H](O)[C@H](O)[C@H]2O)c1)C(C)C` [Compound 44]: the pEC50 in test [1] is 10.07; on SST2, 8.35; in test [2], 8.32.
As to `CC[C@H](C)[C@@H]([C@@H](CC(=O)N1CCC[C@H]1[C@H](OC)[C@@H](C)C(=O)N[C@H](C)[C@@H](O)c1ccccc1)OC)N(C)C(=O)[C@@H](NC(=O)[C@H](C(C)C)N(C)C(=O)OCc1ccc(NC(=O)[C@H](CCCNC(N)=O)NC(=O)[C@@H](NC(=O)CCOCCOCCOCCOCCC(=O)NCCCNc2ncc(-c3cc(C)cc(F)c3)c(N3CCC(N)CC3)c2-c2nc3ccc(Cl)cc3[nH]2)C(C)C)cc1)C(C)C` [Compound 197], the pEC50 in test [1] was 9.57; at SST2, 8.19; in test [2], 7.92.
On to `CC[C@H](C)[C@@H]([C@@H](CC(=O)N1CCC[C@H]1[C@H](OC)[C@@H](C)C(=O)N[C@H](C)[C@@H](O)c1ccccc1)OC)N(C)C(=O)[C@@H](NC(=O)[C@H](C(C)C)N(C)C(=O)OCc1ccc(NC(=O)[C@H](C)NC(=O)[C@@H](NC(=O)CCOCCC(=O)NCCNc2ncc(-c3cc(C)cc(F)c3)c(N3CCC(N)CC3)c2-c2nc3ccc(Cl)cc3[nH]2)C(C)C)c(OCC(=O)O)c1)C(C)C` [Compound 13], for which the figures for the pEC50 (in test [1]; at SST2; in test [2]) were 9.80, 8.49 and 7.96, respectively.
Taken in the same sequence, the figures for `CC[C@H](C)[C@@H]([C@@H](CC(=O)N1CCC[C@H]1[C@H](OC)[C@@H](C)C(=O)N[C@H](C)[C@@H](O)c1ccccc1)OC)N(C)C(=O)[C@@H](NC(=O)[C@H](C(C)C)N(C)C(=O)OCc1ccc(NC(=O)[C@H](CCCNC(N)=O)NC(=O)[C@@H](NC(=O)c2cc(NCCOCCC(=O)NCCNc3ncc(-c4cc(C)cc(F)c4)c(N4CCC(N)CC4)c3-c3nc4ccc(Cl)cc4[nH]3)cc(C(=O)NCCN(CC(=O)O)CC(=O)O)c2)C(C)C)cc1)C(C)C` [Compound 189] were 9.40, 8.12 and 5.66.
Consider `CC[C@H](C)[C@@H]([C@@H](CC(=O)N1CCC[C@H]1[C@H](OC)[C@@H](C)C(=O)N[C@H](C)[C@@H](O)c1ccccc1)OC)N(C)C(=O)[C@@H](NC(=O)[C@H](C(C)C)N(C)C(=O)OCc1ccc(NC(=O)[C@H](CCCNC(N)=O)NC(=O)[C@@H](NC(=O)c2cc(NCCCC(=O)N(C)CC(=O)NCCNc3ncc(-c4cc(C)cc(F)c4)c(N4CCC(N)CC4)c3-c3nc4ccc(Cl)cc4[nH]3)cc(C(=O)NC[C@@H](N)C(=O)O)c2)C(C)C)cc1)C(C)C` [Compound 172], for which the pEC50 in test [1] is 9.48; on SST2, 8.20; in test [2], 7.66.
For `CC[C@H](C)[C@@H]([C@@H](CC(=O)N1CCC[C@H]1[C@H](OC)[C@@H](C)C(=O)N[C@H](C)[C@@H](O)c1ccccc1)OC)N(C)C(=O)[C@@H](NC(=O)[C@H](C(C)C)N(C)C(=O)OCc1ccc(NC(=O)[C@H](C)NC(=O)[C@@H](NC(=O)CCOCCC(=O)N(C)CC(=O)NCCNc2ncc(-c3cc(C)cc(F)c3)c(N3CCC(N)CC3)c2-c2nc3ccc(Cl)cc3[nH]2)C(C)C)c(O[C@@H]2O[C@H](C(=O)NCCS(=O)(=O)O)[C@@H](O)[C@H](O)[C@H]2O)c1)C(C)C` [Compound 51] the same measures were 10.04, 8.36 and 7.55.
As for `CC[C@H](C)[C@@H]([C@@H](CC(=O)N1CCC[C@H]1[C@H](OC)[C@@H](C)C(=O)N[C@H](C)[C@@H](O)c1ccccc1)OC)N(C)C(=O)[C@@H](NC(=O)[C@H](C(C)C)N(C)C(=O)OCc1ccc(NC(=O)[C@H](CCCNC(N)=O)NC(=O)[C@@H](NC(=O)C2(C(=O)NCCOCCC(=O)NCCNc3ncc(-c4cc(C)cc(F)c4)c(N4CCC(N)CC4)c3-c3nc4ccc(Cl)cc4[nH]3)CCC2)C(C)C)cc1C(=O)NCCN)C(C)C` [Compound 81], the figures for the pEC50 (in test [1]; at SST2; in test [2]) were 10.03, 8.00 and 8.70, respectively.
Regarding `CC[C@H](C)[C@@H]([C@@H](CC(=O)N1CCC[C@H]1[C@H](OC)[C@@H](C)C(=O)N[C@H](C)[C@@H](O)c1ccccc1)OC)N(C)C(=O)[C@@H](NC(=O)[C@H](C(C)C)N(C)C(=O)OCc1ccc(NC(=O)[C@H](CCCNC(N)=O)NC(=O)[C@@H](NC(=O)CCOCCC(=O)N(C)CC(=O)NCCNc2ncc(-c3cc(C)cc(F)c3)c(N3CCC(N)CC3)c2-c2nc3ccc(Cl)cc3[nH]2)C(C)C)c(O[C@@H]2O[C@H](C(=O)NCCO)[C@@H](O)[C@H](O)[C@H]2O)c1)C(C)C` [Compound 207], the pEC50 in test [1] is 9.64; at SST2, 8.23; in test [2], 8.08.

By pEC50 is commonly meant the EC50 on a negative log10 scale, so that one unit is a factor of ten.
